The text below walks through data of article PMC7416410, “Synthesis, molecular docking and molecular dynamic simulation studies of 2-chloro-5-[(4-chlorophenyl)sulfamoyl]-N-(alkyl/aryl)-4-nitrobenzamide derivatives as antidiabetic agents” (BMC Chemistry, 2020).

Data set [1] has as its target T1, α-Glucosidase from Saccharomyces cerevisiae (Saccharomyces cerevisiae, UniProt P53341).
T1 construct: purchased Sigma Aldrich
The data set can be described thus: α-Glucosidase inhibitory assay. Type of data set: biochemical. To be noted: for IC50: in vitro. From the text: The analytical grade chemicals and reagents were used as such in experiments without any purification. Decibel melting point apparatus was used for checking the melting point of the synthesized compounds and are reported as uncorrected. The silica gel-precoated aluminum sheets for thin-layer chromatography (TLC) were employed to keep a vigil of the reaction progress.
The method adopted for performing α-glucosidase inhibitory assay was similar to our prevenient study, Thakral and Singh.

For another data set, the target named is α-amylase from malt. In words: α-Amylase inhibitory assay. Type of data set: biochemical. To be noted: for IC50: in vitro. An excerpt: The analytical grade chemicals and reagents were used as such in experiments without any purification. Decibel melting point apparatus was used for checking the melting point of the synthesized compounds and are reported as uncorrected. The silica gel-precoated aluminum sheets for thin-layer chromatography (TLC) were employed to keep a vigil of the reaction progress. FT-IR (Diffuse Reflectance Method (DRS) -8000A, Shimadzu, Japan) spectrophotometer was utilized for recording infrared spectra and the Bruker Avance III, 400 MHz NMR spectrometer was employed for nuclear magnetic resonance spectra (^1H NMR, ^13C NMR; Chemical shift δ values- ppm). α-Glucosidase from Saccharomyces cerevisiae (EC 3.2.1.20, Sigma Aldrich) and α-amylase from malt (232-588-1, HiMedia) have been used for in vitro studies.
Xiao et al., and Yoshikawa et al., illustrated a method, with little modification this method has been adopted for measuring the activity.

The term IC50 denotes the concentration that inhibits the measured activity by half. Lower therefore signals higher potency. What is called melting point is the temperature, or range, at which the solid turns liquid.

T1 sequence (P53341 whole entry): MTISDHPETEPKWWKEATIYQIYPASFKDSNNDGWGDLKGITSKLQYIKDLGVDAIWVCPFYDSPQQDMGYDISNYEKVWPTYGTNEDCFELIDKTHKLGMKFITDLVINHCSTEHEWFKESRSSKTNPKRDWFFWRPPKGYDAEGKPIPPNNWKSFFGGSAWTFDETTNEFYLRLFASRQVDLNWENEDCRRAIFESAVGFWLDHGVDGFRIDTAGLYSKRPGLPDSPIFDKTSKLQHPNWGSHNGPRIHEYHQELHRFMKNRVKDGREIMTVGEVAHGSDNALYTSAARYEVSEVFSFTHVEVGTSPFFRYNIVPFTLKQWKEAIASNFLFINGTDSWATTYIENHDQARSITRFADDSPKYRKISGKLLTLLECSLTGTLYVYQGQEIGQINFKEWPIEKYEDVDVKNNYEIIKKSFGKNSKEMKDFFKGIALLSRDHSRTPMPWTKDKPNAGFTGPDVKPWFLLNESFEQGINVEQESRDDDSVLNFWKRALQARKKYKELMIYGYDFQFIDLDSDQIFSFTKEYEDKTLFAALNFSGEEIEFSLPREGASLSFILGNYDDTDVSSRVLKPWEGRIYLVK

With `O=C(Nc1ccc([N+](=O)[O-])cc1)c1cc(S(=O)(=O)Nc2ccc(Cl)cc2)c([N+](=O)[O-])cc1Cl` [Compound 5q], the melting point was in the range of 177 to 179 °C. In addition, inhibition in data set [1] was half-maximal at 43.9 ± 1.18 µM (IC50). The same compound returned a 50% inhibitory concentration (IC50) against α-amylase from malt of 11.2 ± 0.67 µM.

`Cc1cc([N+](=O)[O-])ccc1NC(=O)c1cc(S(=O)(=O)Nc2ccc(Cl)cc2)c([N+](=O)[O-])cc1Cl` [Compound 5p, 2-Chloro-5-[(4-chlorophenyl)sulfamoyl]-N-(2-methyl-4-nitrophenyl)-4-nitrobenzamide] showed a melting point of 104 to 106 °C. Besides, it took 19.5 ± 0.43 µM to reach half-maximal inhibition in data set [1] (IC50). The compound further showed an IC50 on α-amylase from malt of 2.1 ± 0.52 µM.

In turn, `Cc1c(NC(=O)c2cc(S(=O)(=O)Nc3ccc(Cl)cc3)c([N+](=O)[O-])cc2Cl)cccc1[N+](=O)[O-]` [Compound 5m, 2-Chloro-5-[(4-chlorophenyl)sulfamoyl]-N-(2-methyl-3-nitrophenyl)-4-nitrobenzamide] displayed a melting point of 170 to 172 °C. In data set [1], the IC50 came out at 24.5 ± 1.23 µM. At α-amylase from malt, this compound yielded an IC50 of 1.52 ± 0.84 µM.

`O=C(Nc1cccc(Br)c1)c1cc(S(=O)(=O)Nc2ccc(Cl)cc2)c([N+](=O)[O-])cc1Cl` [Compound 5g, N-(3-Bromophenyl)-2-chloro-5-[(4-chlorophenyl)sulfamoyl]-4-nitrobenzamide]: the melting point fell in the range of 181 to 183 °C. In data set [1], this compound returned an IC50 of 35.9 ± 0.6 µM. At α-amylase from malt, this compound yielded an IC50 of 16.7 ± 0.41 µM.

For `O=C(Nc1ccccc1[N+](=O)[O-])c1cc(S(=O)(=O)Nc2ccc(Cl)cc2)c([N+](=O)[O-])cc1Cl` [Compound 5k, 2-Chloro-5-[(4-chlorophenyl)sulfamoyl]-4-nitro-N-(2-nitrophenyl)benzamide], the melting point lay within 150 to 152 °C. Also, the IC50 in data set [1] was 36.9 ± 1.3 µM. At α-amylase from malt, this compound returned an IC50 of 12.5 ± 0.91 µM.

In the case of `O=C(Nc1ccc([N+](=O)[O-])cc1Cl)c1cc(S(=O)(=O)Nc2ccc(Cl)cc2)c([N+](=O)[O-])cc1Cl` [Compound 5n, 2-Chloro-N-(2-chloro-4-nitrophenyl)-5-[(4-chlorophenyl)sulfamoyl]-4-nitrobenzamide], the melting point lay within 214 to 216 °C. Inhibition in data set [1] was half-maximal at 29.5 ± 1.53 µM (IC50). It took 35.3 ± 0.45 µM to reach half-maximal inhibition against α-amylase from malt (IC50).

For `CCCNC(=O)c1cc(S(=O)(=O)Nc2ccc(Cl)cc2)c([N+](=O)[O-])cc1Cl` [Compound 5s, 2-Chloro-5-[(4-chlorophenyl)sulfamoyl]-4-nitro-N-propylbenzamide], the melting point is 116 to 118 °C. The compound further yielded an IC50 in data set [1] of 106.2 ± 0.61 µM. The same compound returned an IC50 at α-amylase from malt of 48.05 ± 0.23 µM.

The compound `COc1ccccc1NC(=O)c1cc(S(=O)(=O)Nc2ccc(Cl)cc2)c([N+](=O)[O-])cc1Cl` [Compound 5e, 2-Chloro-5-[(4-chlorophenyl)sulfamoyl]-N-(2-methoxyphenyl)-4-nitrobenzamide] registered a melting point of 164 to 166 °C. In data set [1], this compound returned an IC50 of 41.7 ± 1.08 µM. Besides, the IC50 at α-amylase from malt was found to be 50.3 ± 0.21 µM.

In turn, `CCCCNC(=O)c1cc(S(=O)(=O)Nc2ccc(Cl)cc2)c([N+](=O)[O-])cc1Cl` [Compound 5t, N-Butyl-2-chloro-5-[(4-chlorophenyl)sulfamoyl]-4-nitrobenzamide] showed a melting point of 111 to 113 °C. Moreover, in data set [1], the IC50 is 131 ± 2.42 µM. At α-amylase from malt, this compound gave an IC50 of 55.1 ± 0.71 µM.

As to `O=C(Nc1cccc([N+](=O)[O-])c1)c1cc(S(=O)(=O)Nc2ccc(Cl)cc2)c([N+](=O)[O-])cc1Cl` [Compound 5r, 2-Chloro-5-[(4-chlorophenyl)sulfamoyl]-4-nitro-N-(3-nitrophenyl)benzamide], the melting point lay in the range of 135 to 137 °C. In data set [1], the IC50 came to 34.4 ± 0.62 µM. The compound further yielded an IC50 at α-amylase from malt of 15.3 ± 1.24 µM.

Turning to `O=C(Nc1ccncc1)c1cc(S(=O)(=O)Nc2ccc(Cl)cc2)c([N+](=O)[O-])cc1Cl` [Compound 5v, 2-Chloro-5-[(4-chlorophenyl)sulfamoyl]-4-nitro-N-(pyridin-4-yl)benzamide], the melting point was 197 to 199 °C. This compound had an IC50 in data set [1] of 52.4 ± 1.92 µM. Half-maximal inhibition against α-amylase from malt (IC50) required 40.4 ± 0.87 µM.

`O=C(NCc1ccco1)c1cc(S(=O)(=O)Nc2ccc(Cl)cc2)c([N+](=O)[O-])cc1Cl` [Compound 5u, 2-Chloro-5-[(4-chlorophenyl)sulfamoyl]-N-[(furan-2-yl)methyl]-4-nitrobenzamide] displayed a melting point of 191 to 193 °C. Moreover, the IC50 in data set [1] amounted to 89 ± 1.76 µM. It took 38.2 ± 0.34 µM to reach half-maximal inhibition on α-amylase from malt (IC50).

As for `C[C@H]1O[C@H](O[C@H]2[C@H](O)[C@@H](O)[C@@H](O[C@H]3[C@H](O)[C@@H](O)C(O)O[C@@H]3CO)O[C@@H]2CO)[C@H](O)[C@@H](O)[C@@H]1N[C@H]1C=C(CO)[C@@H](O)[C@H](O)[C@H]1O` (stereo partly drawn) [Acarbose, reference compound], the IC50 on α-amylase from malt was determined as 5.6 ± 0.3 µM.

The compound `Cc1ccc(NC(=O)c2cc(S(=O)(=O)Nc3ccc(Cl)cc3)c([N+](=O)[O-])cc2Cl)cc1` [Compound 5a, 2-Chloro-5-[(4-chlorophenyl)sulfamoyl]-N-(4-methylphenyl)-4-nitrobenzamide] returned a melting point of 90 to 92 °C. In addition, half-maximal inhibition in data set [1] (IC50) was put at 31.4 ± 1.66 µM. In addition, the midpoint of inhibition on α-amylase from malt, the IC50, lay at 7.4 ± 0.15 µM.

With `Cc1ccccc1NC(=O)c1cc(S(=O)(=O)Nc2ccc(Cl)cc2)c([N+](=O)[O-])cc1Cl` [Compound 5c, 2-Chloro-5-[(4-chlorophenyl)sulfamoyl]-N-(2-methylphenyl)-4-nitrobenzamide], the melting point was in the range of 88 to 90 °C. The IC50 in data set [1] is 26.8 ± 1.13 µM. On α-amylase from malt, this compound displayed an IC50 of 8 ± 0.71 µM.

`O=C(Nc1ccccc1Cl)c1cc(S(=O)(=O)Nc2ccc(Cl)cc2)c([N+](=O)[O-])cc1Cl` [Compound 5j, 2-Chloro-N-(2-chlorophenyl)-5-[(4-chlorophenyl)sulfamoyl]-4-nitrobenzamide] gave a melting point of 176 to 178 °C. In data set [1], this compound had an IC50 of 15.8 ± 0.9 µM. At α-amylase from malt, this compound came in with an IC50 of 20.9 ± 1.24 µM.

In the case of `Cc1c(Cl)cccc1NC(=O)c1cc(S(=O)(=O)Nc2ccc(Cl)cc2)c([N+](=O)[O-])cc1Cl` [Compound 5l, 2-Chloro-N-(3-chloro-2-methylphenyl)-5-[(4-chlorophenyl)sulfamoyl]-4-nitrobenzamide], the melting point fell in the range of 212 to 214 °C. For the same compound, in data set [1], inhibition was half-maximal at 29 ± 0.86 µM (IC50). On α-amylase from malt, this compound came in with an IC50 of 6.3 ± 0.42 µM.

Turning to `O=C(Nc1ccccc1Br)c1cc(S(=O)(=O)Nc2ccc(Cl)cc2)c([N+](=O)[O-])cc1Cl` [Compound 5h, N-(2-Bromophenyl)-2-chloro-5-[(4-chlorophenyl)sulfamoyl]-4-nitrobenzamide], the melting point lay within 180 to 182 °C. This compound showed an IC50 in data set [1] of 40.6 ± 1.49 µM. Besides, the IC50 against α-amylase from malt worked out at 19.3 ± 0.63 µM.

The compound `O=C(Nc1ccc(Br)cc1)c1cc(S(=O)(=O)Nc2ccc(Cl)cc2)c([N+](=O)[O-])cc1Cl` [Compound 5f, N-(4-Bromophenyl)-2-chloro-5-[(4-chlorophenyl)sulfamoyl]-4-nitrobenzamide] came in with a melting point of 200 to 202 °C. In data set [1], this compound displayed an IC50 of 50.2 ± 0.89 µM. The compound further returned a half-maximal inhibitory concentration (IC50) at α-amylase from malt of 16 ± 0.33 µM.

Turning to `Cc1cccc(NC(=O)c2cc(S(=O)(=O)Nc3ccc(Cl)cc3)c([N+](=O)[O-])cc2Cl)c1` [Compound 5b, 2-Chloro-5-[(4-chlorophenyl)sulfamoyl]-N-(3-methylphenyl)-4-nitrobenzamide], the melting point was in the range of 102 to 104 °C. In data set [1], the IC50 is 24.8 ± 2.69 µM. On α-amylase from malt, inhibition was half-maximal at 5.3 ± 1.23 µM (IC50).

`Cc1ccc([N+](=O)[O-])cc1NC(=O)c1cc(S(=O)(=O)Nc2ccc(Cl)cc2)c([N+](=O)[O-])cc1Cl` [Compound 5o, 2-Chloro-5-[(4-chlorophenyl)sulfamoyl]-N-(2-methyl-5-nitrophenyl)-4-nitrobenzamide] returned a melting point of 203 to 205 °C. In data set [1] (fold relative to acarbose), the “inhibitory potential against α-glucosidase in comparison to standard drug acarbose” value is listed as “fourfold”. The compound further returned an IC50 in data set [1] of 10.8 ± 0.52 µM. The “inhibitory activity against α-amylase in comparison to standard drug acarbose” value with α-amylase from malt (fold relative to acarbose) was “around six times”. Moreover, the IC50 at α-amylase from malt is 0.9 ± 0.31 µM.

In turn, `O=C(Nc1cccc(Cl)c1)c1cc(S(=O)(=O)Nc2ccc(Cl)cc2)c([N+](=O)[O-])cc1Cl` [Compound 5i, 2-Chloro-N-(3-chlorophenyl)-5-[(4-chlorophenyl)sulfamoyl]-4-nitrobenzamide] had a melting point of 220 to 222 °C. The IC50 in data set [1] came to 14 ± 0.93 µM. Also, the midpoint of inhibition against α-amylase from malt, the IC50, lay at 27.1 ± 0.51 µM.

`COc1ccc(NC(=O)c2cc(S(=O)(=O)Nc3ccc(Cl)cc3)c([N+](=O)[O-])cc2Cl)cc1` [Compound 5d, 2-Chloro-5-[(4-chlorophenyl)sulfamoyl]-N-(4-methoxyphenyl)-4-nitrobenzamide] gave a melting point of 150 to 152 °C. The IC50 in data set [1] was determined as 38.57 ± 0.01 µM. This compound gave an IC50 against α-amylase from malt of 38 ± 0.51 µM.
